Measurements: ChEMBL document CHEMBL1201862, “PubChem BioAssay data set” (2004)
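Growth conditions: 96-well plates. Treatment: test compound, 48 hours, 5 concentrations. Analysis: linear interpolation between bracketing concentrations; unreached endpoints set to highest concentration. At the GI50, growth is halved.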 Calls of active or inactive are those of the source. No stated cut-off is given here; in the data, active = GI50 up to about 1.1 µM and inactive = higher.

Legend:
Test in all cases: DTP human tumour cell line panel, 48 h
OVCAR-4 = system: OVCAR-4
UO-31 = system: UO-31
HCT-116 = system: HCT-116
ACHN = system: ACHN
K562 = system: K562
NCI-H23 = system: NCI-H23
UACC-62 = system: UACC-62
XF498 = system: XF498
U-251 = system: U-251
HCT-15 = system: HCT-15
KM12 = system: KM12
KM-20L2 = system: KM-20L2
MOLT-4 = system: MOLT-4
TK-10 = system: TK-10
HOP-62 = system: HOP-62
M14 = system: M14
EKVX = system: EKVX
RXF 393 = system: RXF 393
A498 = system: A498
786-0 = system: 786-0
NCI-H226 = system: NCI-H226
SF-295 = system: SF-295
OVCAR-8 = system: OVCAR-8
NCI-H522 = system: NCI-H522
CAKI-1 = system: CAKI-1
SF-268 = system: SF-268
LXFL 529 = system: LXFL 529
IGROV-1 = system: IGROV-1
NCI-H460 = system: NCI-H460
SW-620 = system: SW-620
HOP-92 = system: HOP-92
SNB-19 = system: SNB-19
SN12C = system: SN12C
SK-MEL-2 = system: SK-MEL-2
HL-60 = system: HL-60
RPMI-8226 = system: RPMI-8226
SNB-75 = system: SNB-75
M19-MEL = system: M19-MEL
Malme-3M = system: Malme-3M
HCC 2998 = system: HCC 2998
SF-539 = system: SF-539
OVCAR-3 = system: OVCAR-3
UACC-257 = system: UACC-257
COLO 205 = system: COLO 205
HT-29 = system: HT-29
SK-MEL-28 = system: SK-MEL-28
DMS-114 = system: DMS-114
DMS-273 = system: DMS-273
DLD-1 = system: DLD-1
CCRF-CEM = system: CCRF-CEM
OVCAR-5 = system: OVCAR-5
SNB-78 = system: SNB-78
SK-OV-3 = system: SK-OV-3
A549 = system: A549
LOX IMVI = system: LOX IMVI
SR = system: SR
HOP-18 = system: HOP-18
SK-MEL-5 = system: SK-MEL-5

CCCCCN(CCCCC)C(=O)[C@@H](CCC(=O)O)NC(=O)c1cc2ccccc2[nH]1
GI50 (OVCAR-4): 44 µM (inactive)
GI50 (UO-31): 21.4 µM (inactive)
GI50 (HCT-116): 17.9 µM (inactive)
GI50 (ACHN): 30.5 µM (inactive)
GI50 (K562): 36.5 µM (inactive)
GI50 (NCI-H23): 22.8 µM (inactive)
GI50 (UACC-62): 20.7 µM (inactive)
GI50 (XF498): 26 µM (inactive)
GI50 (U-251): 29.1 µM (inactive)
GI50 (HCT-15): 37.7 µM
GI50 (KM12): 39.3 µM (inactive)
GI50 (KM-20L2): 40.5 µM (inactive)
GI50 (MOLT-4): 21.5 µM (inactive)
GI50 (TK-10): 46.6 µM (inactive)
GI50 (HOP-62): 32.2 µM (inactive)
GI50 (M14): 23.2 µM (inactive)
GI50 (EKVX): 48.1 µM (inactive)
GI50 (RXF 393): 1.99 µM (inactive)
GI50 (A498): > 100 µM (inactive)
GI50 (786-0): 46.5 µM (inactive)
GI50 (NCI-H226): 37.3 µM (inactive)
GI50 (SF-295): 33.9 µM (inactive)
GI50 (OVCAR-8): 52.8 µM (inactive)
GI50 (NCI-H522): 13.5 µM (inactive)
GI50 (CAKI-1): 25.1 µM (inactive)
GI50 (SF-268): 24.5 µM (inactive)
GI50 (LXFL 529): 41.7 µM (inactive)
GI50 (IGROV-1): 44 µM (inactive)
GI50 (NCI-H460): 34.4 µM (inactive)
GI50 (SW-620): 63.1 µM (inactive)
GI50 (HOP-92): 25.6 µM (inactive)
GI50 (SNB-19): 34.9 µM (inactive)
GI50 (SN12C): 43.4 µM (inactive)
GI50 (SK-MEL-2): 27.7 µM (inactive)
GI50 (HL-60): 24.1 µM (inactive)
GI50 (RPMI-8226): 16 µM (inactive)
GI50 (SNB-75): 12.3 µM (inactive)
GI50 (M19-MEL): 22.3 µM (inactive)
GI50 (Malme-3M): 35.4 µM (inactive)
GI50 (HCC 2998): 34 µM (inactive)
GI50 (SF-539): 22.3 µM (inactive)
GI50 (OVCAR-3): 33.9 µM (inactive)
GI50 (UACC-257): 49.4 µM (inactive)
GI50 (COLO 205): 30.9 µM (inactive)
GI50 (HT-29): 46.6 µM (inactive)
GI50 (SK-MEL-28): 21.4 µM (inactive)
GI50 (DMS-114): 33 µM (inactive)
GI50 (DMS-273): 32.1 µM (inactive)
GI50 (DLD-1): 31.5 µM (inactive)
GI50 (CCRF-CEM): 22.8 µM (inactive)
GI50 (OVCAR-5): > 100 µM (inactive)
GI50 (SNB-78): 59.6 µM (inactive)
GI50 (SK-OV-3): 65.2 µM (inactive)
GI50 (A549): 39.3 µM (inactive)
GI50 (LOX IMVI): 59.3 µM (inactive)

COc1ccc(/C=N/n2c(C)nc3c(sc(=S)n3-c3ccccc3)c2=O)cc1
GI50 (UO-31): > 100 µM (inactive)
GI50 (HCT-116): > 100 µM (inactive)
GI50 (ACHN): > 100 µM (inactive)
GI50 (K562): 25.6 µM (inactive)
GI50 (NCI-H23): > 100 µM (inactive)
GI50 (UACC-62): 60.5 µM (inactive)
GI50 (U-251): > 100 µM (inactive)
GI50 (KM12): > 100 µM (inactive)
GI50 (SR): 44 µM (inactive)
GI50 (MOLT-4): 34.4 µM (inactive)
GI50 (TK-10): > 100 µM (inactive)
GI50 (HOP-18): > 100 µM (inactive)
GI50 (HOP-62): 66.8 µM (inactive)
GI50 (A498): 36 µM (inactive)
GI50 (NCI-H226): > 100 µM (inactive)
GI50 (SF-295): 37.2 µM (inactive)
GI50 (OVCAR-8): > 100 µM (inactive)
GI50 (NCI-H522): 21.4 µM (inactive)
GI50 (SF-268): 44.8 µM (inactive)
GI50 (LXFL 529): 49 µM (inactive)
GI50 (IGROV-1): > 100 µM (inactive)
GI50 (NCI-H460): 31.6 µM (inactive)
GI50 (SW-620): > 100 µM (inactive)
GI50 (HOP-92): 40.7 µM (inactive)
GI50 (SNB-19): 82.4 µM (inactive)
GI50 (SK-MEL-5): > 100 µM (inactive)
GI50 (HL-60): 21.6 µM (inactive)
GI50 (RPMI-8226): 27 µM (inactive)
GI50 (SNB-75): 14.4 µM (inactive)
GI50 (M19-MEL): 63.2 µM (inactive)
GI50 (HCC 2998): > 100 µM (inactive)
GI50 (SF-539): 47.3 µM (inactive)
GI50 (OVCAR-3): 45.5 µM (inactive)
GI50 (UACC-257): 62.7 µM (inactive)
GI50 (COLO 205): > 100 µM (inactive)
GI50 (HT-29): 37.2 µM (inactive)
GI50 (SK-MEL-28): 43.7 µM (inactive)
GI50 (DLD-1): > 100 µM (inactive)
GI50 (CCRF-CEM): 21.1 µM (inactive)
GI50 (OVCAR-5): > 100 µM (inactive)
GI50 (SK-OV-3): > 100 µM (inactive)
GI50 (A549): > 100 µM (inactive)

Nc1ccn(CCOC(c2ccccc2)P(=O)(O)O)c(=O)n1 (stereo not drawn)
GI50 (UO-31): > 100 µM (inactive)
GI50 (HCT-116): > 100 µM (inactive)
GI50 (ACHN): > 100 µM (inactive)
GI50 (NCI-H23): > 100 µM (inactive)
GI50 (UACC-62): > 100 µM (inactive)
GI50 (XF498): > 100 µM (inactive)
GI50 (U-251): > 100 µM (inactive)
GI50 (HCT-15): > 100 µM
GI50 (KM12): > 100 µM (inactive)
GI50 (KM-20L2): > 100 µM (inactive)
GI50 (SR): > 100 µM (inactive)
GI50 (MOLT-4): > 100 µM (inactive)
GI50 (TK-10): > 100 µM (inactive)
GI50 (EKVX): > 100 µM (inactive)
GI50 (RXF 393): > 100 µM (inactive)
GI50 (A498): > 100 µM (inactive)
GI50 (786-0): > 100 µM (inactive)
GI50 (NCI-H226): > 100 µM (inactive)
GI50 (SF-295): > 100 µM (inactive)
GI50 (OVCAR-8): > 100 µM (inactive)
GI50 (NCI-H522): > 100 µM (inactive)
GI50 (CAKI-1): > 100 µM (inactive)
GI50 (SF-268): > 100 µM (inactive)
GI50 (LXFL 529): > 100 µM (inactive)
GI50 (IGROV-1): > 100 µM (inactive)
GI50 (NCI-H460): > 100 µM (inactive)
GI50 (SW-620): > 100 µM (inactive)
GI50 (SNB-19): > 100 µM (inactive)
GI50 (SN12C): > 100 µM (inactive)
GI50 (SK-MEL-5): > 100 µM (inactive)
GI50 (SK-MEL-2): > 100 µM (inactive)
GI50 (HL-60): > 100 µM (inactive)
GI50 (SNB-75): 12.2 µM (inactive)
GI50 (M19-MEL): > 100 µM (inactive)
GI50 (Malme-3M): > 100 µM (inactive)
GI50 (HCC 2998): > 100 µM (inactive)
GI50 (SF-539): > 100 µM (inactive)
GI50 (OVCAR-3): > 100 µM (inactive)
GI50 (UACC-257): > 100 µM (inactive)
GI50 (COLO 205): > 100 µM (inactive)
GI50 (HT-29): > 100 µM (inactive)
GI50 (SK-MEL-28): > 100 µM (inactive)
GI50 (DMS-114): > 100 µM (inactive)
GI50 (DMS-273): > 100 µM (inactive)
GI50 (DLD-1): > 100 µM (inactive)
GI50 (CCRF-CEM): > 100 µM (inactive)
GI50 (OVCAR-5): > 100 µM (inactive)
GI50 (SNB-78): > 100 µM (inactive)
GI50 (SK-OV-3): > 100 µM (inactive)
GI50 (A549): > 100 µM (inactive)
GI50 (LOX IMVI): > 100 µM (inactive)
